According to the NIST ThermoML archive (doi:10.1021/je700523b):

Assay: wn = mass fraction of the nth substance listed
Details: 298.15 K; for surface tension liquid-gas: Pendant drop shape; for mass density / viscosity: 101 kPa, Liquid; for mass density: Vibrating tube method

CCOS(=O)(=O)[O-].CCn1cc[n+](C)c1 [1-ethyl-3-methylimidazolium ethyl sulfate] + O
Details	mass density [kg/m3]	surface tension liquid-gas [mN/m]	viscosity [mPa·s]
w2 = 0.000475	1236.26	47	91.85
w2 = 0.00754	1234.51	47.23	83.6
w2 = 0.0144	1233.93	48.01	70.21
w2 = 0.02531	1231.35	48.08	65.61
w2 = 0.03047	1230	48.09	55.78
w2 = 0.03849	1227.15	47.93	41.85
w2 = 0.04185	1228.01	48.14	33.3
w2 = 0.05643	1226.3	47.95	30.63
w2 = 0.06937	1222.45	48.25	24.8
w2 = 0.07519	1219.51	48.97	23.63
w2 = 0.09292	1215.44	49.35	17.41
w2 = 0.09493	1214.98	50.11	14.73
